Read-outs that look alike come from different tables or passages of the source.
Tests used:
Type in all cases: in vivo
[1] = test system: Neotropical Brown Stink Bug (Euschistus heros, EUSCHE); experiment: Bioassay 5: Neotropical Brown Stink Bug, soaked green bean segments; conditions: 72 h; for pest or weed control at 0.000156 % / pest or weed control at 0.0025 %: read-out: Average % Control AI; for pest or weed control at 0.000625 %: AI alone 0.000625 % (w/v)
Experimental: Stock solutions were prepared with Formula One as well as for each of the active ingredients individually. Test solutions were prepared from the stock solutions. Test solutions were prepared containing Formula One, the individual active ingredients, and mixtures of Formula One with each of the active ingredients. The test solution for Formula One was prepared by adding 500 μL of the stock solution to a 25 mL glass vial, then adding 500 μL of acetone, followed by the addition of 9 mL water with 0.025% Tween® 20 to create a 0.04% (w/v) solution. The individual active ingredients were prepared by adding 500 μL of stock solution to a 25 mL glass vial, then adding 500 μL of acetone, followed by the addition of 9 mL water with 0.025% Tween® 20 to create a 0.005% (w/v) solution. The test solutions containing mixtures of Formula One and the individual active ingredients were prepared by adding 500 μL of the active ingredient stock solution to a 25 mL glass vial, followed by 500 μL of the Formula One stock solution, then by the addition of 9 mL water with 0.025% Tween® 20 to create a test solution containing 0.04% (w/v) Formula One and 0.005% (w/v) of the active ingredient. Each test solution was serially diluted to create desired doses of test solutions (0.01% (w/v), 0.0025% (w/v), 0.000625% (w/v), 0.000156% (w/v), and 0.000039% (w/v)). In test solutions containing mixtures of Formula One and the active ingredients, the active ingredients were diluted as described above, but the Concentration of Formula One was held constant (0.04% (w/v)).
The test solutions that were tested against BSB were similar to those described above for WTPB. Fresh green beans were cut into segments approximately 1.5 inches long. Four bean segments were added to each test solution and soaked for approximately 15 minutes. After soaking, a single bean fragment was removed and placed into a single well of a 32-well rearing tray (Frontier Agricultural Sciences™), on top of a round filter paper disc. A reference treatment (solvent check) was treated with the diluent only. Each treatment was replicated four times and the test treatments were held at approximately 26° C. and ambient relative humidity (RH) prior to grading. Bean segments were allowed to air dry for ˜30 minutes. Three BSB nymphs were added to and contained in each well with a clear perforated adhesive lid. The total number of living BSB nymphs was recorded 3 days after application. Scoring was based off the total number of living nymphs out of all four replicates. Percent control was measured using Abbott's correction formula (W. S. Abbott, J. Econ. Entomol. 18 (1925), pp. 265-267) as follows:
(§1) Corrected % Control=(1−(Y/X))*100
where X=No. of live nymphs on solvent check and Y=No. of live nymphs on treated bean segments. In Table B5 the “Expected % Control” was calculated using the method described in Colby S. R., Weeds, 1967, 15, 20-22. Bioassay 6: Beet Armyworm (Spodoptera exigua, LAPHEG) (BAW), and Diamondback Moth (Plutella xylostella, PLUTMA) (DBM).

[2] = test system: Western Flower Thrips (Frankliniella occidentalis, FRANOC); experiment: Bioassay 3: Western Flower Thrips, cotton leaf disc dip; conditions: foliar, 72 h; for pest or weed control at 7.8e-05 %: read-out: Average % Control AI; for pest or weed control at 0.0003125 %: AI alone 0.0003125 % (w/v); for pest or weed control at 0.005 %: AI alone 0.005 % (w/v)
Experimental: Stock solutions of Formula One and various active ingredients were prepared initially at a concentration of 8 mg/mL for Formula One and 1 mg/mL for the active ingredients, respectively, using acetone as a diluent. Stock solutions were prepared with Formula One as well as for each of the active ingredients individually. Test solutions were prepared from the stock solutions. Test solutions were prepared containing Formula One, the individual active ingredients, and mixtures of Formula One with each of the active ingredients. The test solution for Formula One was prepared by adding 500 μL of the stock solution to a 25 mL glass vial, then adding 500 μL of acetone, followed by the addition of 9 mL water with 0.025% Tween® 20 to create a 0.04% (w/v) solution. The test solutions of the individual active ingredients were prepared by adding 500 μL of stock solution to a 25 mL glass vial, then adding 500 μL of acetone, followed by the addition of 9 mL water with 0.025% Tween® 20 to create a 0.005% (w/v) solution. The test solutions containing mixtures of Formula One and the individual active ingredients were prepared by adding 500 μL of the active ingredient stock solution to a 25 mL glass vial, followed by 500 μL of the Formula One stock solution, then by the addition of 9 mL water with 0.025% Tween® 20 to create a test solution containing 0.04% (w/v) Formula One and 0.005% (w/v) of the active ingredient. Each test solution was serially diluted to create desired doses of test solutions (0.005% (w/v), 0.00125% (w/v), 0.0003125% (w/v), 0.000078% (w/v), and 0.0000195% (w/v)). In test solutions containing mixtures of Formula One and the active ingredients, the active ingredients were diluted as described above, but the Concentration of Formula One was held constant (0.04% (w/v)).
The test solutions were tested against WFT using the following procedure: Leaf discs (2.7 cm in diameter) were cut from the true leaves of cotton plants. Leaf discs were dipped into the test solutions and shaken to ensure complete coverage of the leaf disc and then placed in Millipore® PetriSlides containing a filter paper disc. Treated leaf discs were air dried for approximately 1 hour. Each leaf disc was infested with 5 WFT (9-10 day old nymphs) by placement on each leaf disc, and the PetriSlides were capped to prevent escape. Each treatment was replicated three times and the test treatments were held at approximately 26° C. and ambient relative humidity (RH) prior to grading. Reference discs (solvent check) were treated with the diluent only. Evaluation was conducted by counting the number of live WFT under magnification 3 days after treatment. Percent control was measured using Abbott's correction formula (W. S. Abbott, J. Econ. Entomol. 18 (1925), pp. 265-267) as follows:
as §1
where X=No. of live nymphs on solvent check leaf discs and Y=No. of live nymphs on treated leaf discs. In Table B3 the “Expected % Control” was calculated using the method described in Colby S. R., Weeds, 1967, 15, 20-22. Bioassay 4: Western Tarnished Plant Bug (Lygus hesperus, LYGUHE) (“WTPB”).

[3] = test system: Green Peach Aphid (Myzus persicae, MYZUPE); experiment: Bioassay 1: Green Peach Aphid, cabbage seedling foliar spray; conditions: 3 days after treatment
Experimental: The stock solutions were prepared with Formula One as well as for each of the active ingredients individually. Test solutions were prepared from the stock solutions. Test solutions were prepared containing Formula One, the individual active ingredients, and mixtures of Formula One with each of the active ingredients. The test solutions for Formula One and the individual active ingredients were prepared by adding 750 microliters (μL) of stock solution to a 25 mL glass vial, then adding 750 μL of 1:1 acetone:methanol solvent, followed by the addition of 13.5 mL water with 0.025% Tween® 20 to create a 0.0005% (weight/volume (w/v)) solution. The test solutions containing mixtures of Formula One and the individual active ingredients were prepared by adding 750 μL of the active ingredient stock solution to a 25 mL glass vial, followed by 750 μL of the Formula One stock solution, then by the addition of 13.5 mL water with 0.025% Tween® 20 to create a test solution containing 0.0005% (w/v) Formula One and 0.0005% (w/v) of the active ingredient. Each test solution was serially diluted to create desired doses of test solutions (0.0005% (w/v), 0.000125% (w/v), 0.00003125% (w/v), 0.0000078% (w/v), 0.00000195% (w/v), and 0.0000005% (w/v)).
The test solutions were tested against GPA using the following procedure: Cabbage seedlings, grown in 3 inch pots with 2-3 small (3-5 centimeter (cm)) true leaves, were used as test substrate. The seedlings were infested with 20-50 GPA (wingless adult and nymph stages) one day prior to chemical application. Four pots with individual seedlings were used for each treatment. A hand-held aspirator-type sprayer was used for spraying a solution to both sides of […] leaves until runoff. Reference plants (solvent check) were sprayed with the diluent only (0.025% Tween® 20 and 10% acetone:methanol (1:1) in water). Treated plants were held in a holding room for three days at approximately 25° C. and ambient relative humidity (RH about 20% to about 45%) prior to grading. Evaluation was conducted by counting the number of live aphids per plant under a microscope three days after treatment. Percent control was measured using Abbott's correction formula (W. S. Abbott, J. Econ. Entomol. 18 (1925), pp. 265-267) as follows:
as §1
where X=No. of live aphids on solvent check plants and Y=No. of live aphids on treated plants. In Table B1 the “Expected % Control” was calculated using the method described in Colby S. R., Weeds, 1967, 15, 20-22. Bioassay 2: Sweet Potato Whitefly (Bemisia tabaci, BEMITA) (“SPW”).

[4] = cotton leaf disc dip, 3 days after treatment
[5] = AI alone 0.0025 % (w/v), soaked bean segments, 3 days after application
[6] = soaked bean segments, 3 days after application
[7] = AI alone 0.000156 % (w/v), soaked bean segments, 3 days after application
[8] = AI alone 0.000078 % (w/v), cotton leaf disc dip, 3 days after treatment

Q: `CN/C(=N/CC1CCOC1)N[N+](=O)[O-]` (stereo not shown) [Dinotefuran] was tested. Which pest or weed control at 0.000156 % [1] did it give?
A: 17%

Q: How did the pest or weed control at 0.0025 % [1] turn out when `COP(=O)(NC(C)=O)SC` (stereo not shown) [Acephate] was run?
A: 0%

Q: And the pest or weed control at 7.8e-05 % [2]?
A: 5%

Q: Which pest or weed control at 0.0003125 % [2, 4] does the source give for `CNC(=O)O/N=C(\SC)C(=O)N(C)C` [Oxamyl] here?
A: 0%

Q: `CC(COc1ccc(Oc2ccccc2)cc1)Oc1ccccn1` (stereo not shown) [Pyriproxyfen] was tested. Which pest or weed control at 0.00125 % ([2]; AI alone 0.00125 % (w/v), cotton leaf disc dip, 3 days after treatment) did it give?
A: 17%

Q: How did the pest or weed control at 0.0025 % [1, 5] turn out when `CCOCn1c(-c2ccc(Cl)cc2)c(C#N)c(Br)c1C(F)(F)F` [Chlorfenapyr] was run?
A: 8%

Q: What about the pest or weed control at 0.005 % [2, 4] of the same compound?
A: 57%

Q: What does the source list for `CC1(C)[C@H](C(=O)O[C@H](C#N)c2cccc(Oc3ccccc3)c2)[C@@H]1/C=C(\Cl)C(F)(F)F` (racemic) [Lambda Cyhalothrin]?
A: pest or weed control at 0.000625 % [1, 6]: 8%; pest or weed control at 0.0003125 % [2, 4]: 7%; Average % Control A1 ([3]; AI alone 0.78x10^-5 % (w/v)): 40%

Q: `O=[N+]([O-])NC1=NCCN1Cc1ccc(Cl)nc1` [Imidacloprid] was tested. Which pest or weed control at 0.000625 % [1, 6] did it give?
A: 17%

Q: What about the pest or weed control at 0.0003125 % [2, 4] of the same compound?
A: 0%

Q: How did the “Average % Control A1” value ([3]; AI alone 3.125x10^-5 % (w/v)) turn out when Emamectin Benzoate was run?
A: 21%

Q: Which results are given for `CC[S+]([O-])c1c(C#N)nn(-c2c(Cl)cc(C(F)(F)F)cc2Cl)c1N` (stereo not shown) [Ethiprole]?
A: pest or weed control at 3.91e-05 % ([1]; AI alone 0.0000391 % (w/v), soaked bean segments, 3 days after application): 0%; pest or weed control at 0.005 % [2, 4]: 0%; Average % Control A1 ([3]; AI alone 3.125x10^-5 % (w/v)): 0%

Q: How did the “Average % Control A1” value ([3]; AI alone 0.195x10^-5 % (w/v)) turn out when `COc1cccc(C(=O)NN(C(=O)c2cc(C)cc(C)c2)C(C)(C)C)c1C` [Methoxyfenozide] was run?
A: 5%

Q: With `CC(c1ccc(C(F)(F)F)nc1)S(C)(=O)=NC#N` (stereo not shown) [Sulfoxaflor] as the compound, how does the pest or weed control at 0.0025 % [1, 5] read?
A: 58%

Q: How did the pest or weed control at 0.0003125 % [2, 4] turn out when `C/C(=N\C#N)N(C)Cc1ccc(Cl)nc1` [Acetamiprid] was run?
A: 13%

Q: And the “Average % Control A1” value ([3]; AI alone 0.78x10^-5 % (w/v))?
A: 24%

Q: With `CNC(=O)c1cc(Cl)cc(C)c1NC(=O)c1cc(Br)nn1-c1ncccc1Cl` [Chlorantraniliprole] as the compound, how does the pest or weed control at 0.005 % [2, 4] read?
A: 7%

Q: How did the “Average % Control A1” value ([3]; AI alone 12.5x10^-5 % (w/v)) turn out when `CON=CNC(=O)c1ccc(C2=NOC(c3cc(Cl)cc(Cl)c3)(C(F)(F)F)C2)cc1C` (stereo not shown) [Fluxametamide] was run?
A: 0%

Q: For `Cc1c(COC(=O)[C@@H]2[C@H](/C=C(\Cl)C(F)(F)F)C2(C)C)cccc1-c1ccccc1` (racemic) [Bifenthrin], which pest or weed control at 0.000156 % [1, 7] is on record?
A: 30%

Q: What about the “Average % Control A1” value ([3]; AI alone 0.78x10^-5 % (w/v)) of the same compound?
A: 52%

Q: For `CN1COCN(Cc2cnc(Cl)s2)/C1=N\[N+](=O)[O-]` [Thiamethoxam], which pest or weed control at 0.000156 % [1, 7] is on record?
A: 17%

Q: And the pest or weed control at 7.8e-05 % [2, 8]?
A: 7%

Q: `CCOC(=O)OC1=C(c2cc(C)ccc2C)C(=O)N[C@]12CC[C@@H](OC)CC2` [Spirotetramat] was tested. Which pest or weed control at 7.8e-05 % [2, 8] did it give?
A: 7%

Q: What about the “Average % Control A1” value ([3]; AI alone 0.05x10^-5 % (w/v)) of the same compound?
A: 15%

Source: patent US20230189807A1, “COMPOSITIONS HAVING PESTICIDAL UTILITY AND PROCESSES RELATED THERETO” (priority 2020, published 2023)
